This note sets out measurements from patent US20220175917A1, “COMBINATION OF IAP INHIBITOR AND IMMUNE CHECKPOINT INHIBITOR” (CHIA TAI TIANQING PHARMACEUTICAL GROUP CO., LTD., priority 2019, published 2022).

Test [1] has as its system mouse triple-negative breast cancer EMT6 cell line. Kind of test: In-vivo drug efficacy study 1: EMT6 transplanted BALB/c mouse model, tumor volume. The following applies: for Tumor volume Day 0: Day 0 (start of dosing). As to the method:
To evaluate the tumor immunotherapeutic effect of test drugs in the mouse triple-negative breast cancer EMT6 cell line (EMT6 is from ATCC, cell No.: CRL-2755) transplanted BALB/c mouse model.
BALB/c mice, female, 6-7 weeks old, weighing about 19.1-22.6 g, were housed in separated ventilated boxes with constant temperature and humidity. The feeding room was under the following conditions: temperature: 20-26° C., humidity: 40-70%, ventilation: 10-20 times/h, and light/dark cycle: 12 h/12 h. The Co-60 radiation-sterilized complete pellet feed for mice was supplied continuously and can be taken freely without limitation, and the drinking tap water (used after autoclaving) was supplied continuously by the water bottle and can be taken freely. A total of 144 mice purchased from Shanghai Lingchang Biotechnology Co., Ltd. were used for the study. The BALB/c mice were inoculated with EMT6 cells subcutaneously to establish murine breast cancer models with subcutaneously-transplanted tumors. The mice were administered when the mean tumor volume reached about 97.3 mm^3. The test compounds were administered orally once every 3 days at a dose of 50 mg/kg. PD1 mAb (from BioXcell, cat No.: BP0146, batch No.: 695318A1B, clone No.: RMP1-14) was administered intraperitoneally once every 3 days at a dose of 10 mg/kg. Tumor volume was measured every 3 days with a two-dimensional caliper, and the volume was measured in mm^3 and calculated according to the following formula: V=0.5 a×b^2, where a and b are the long and short diameters, respectively, of the tumor. Anti-tumor efficacy was determined by dividing the mean tumor increase volume of compound-treated animals by the mean tumor increase volume of untreated animals.

In test [2] the test system is mouse colon cancer MC38 cell line. Put plainly: In vivo efficacy study 2: MC38 transplanted BALB/c mouse model, tumor volume. Particulars: combination Example 2 50 mg/kg orally twice a week + Anti-PD1 10 mg/kg intravenously once a week, MC38, BALB/c mice. An excerpt: To evaluate the tumor immunotherapeutic effect of test drugs in the mouse colon cancer MC38 cell line (from Obio Technology (Shanghai) Co., Ltd.) transplanted BALB/c mouse model.
BALB/c mice, female, 6-7 weeks old, weighing about 18-22 g, were kept in a special pathogen-free environment and in separated ventilated cages (3-5 mice per cage). All cages, bedding and water were disinfected prior to use. All animals had free access to standard certified commercial laboratory diets. A total of 48 mice purchased from Shanghai Slac Laboratory Animal Co., Ltd. were enrolled. Each mouse was implanted subcutaneously in the right flank with mouse colon cancer MC38 cells (2×10^5 cells in 0.1 mL of phosphate buffered saline) for tumor growth. The mice were administered when the mean tumor volume reached about 70 mm^3. Test compounds were administered orally twice a week (morning and afternoon) at a dose of 50 mg/kg; PD-1 antibody (from BioXcell, cat. No.: BP0146, batch No.: 640517M2B) was administered intravenously once a week at a dose of 10 mg/kg. Tumor volume was measured […] with a two-dimensional caliper, and the volume was measured in mm^3 and calculated according to the following formula: V=0.5 a×b^2, where a and b are the long and short diameters, respectively, of the tumor. Anti-tumor efficacy was determined by dividing the mean tumor increase volume of compound-treated animals by the mean tumor increase volume of untreated animals.

Setting [3] is: Example 2 alone, 50 mg/kg orally once every 3 days, EMT6 subcutaneous, BALB/c mice.
Setting [4] is: combination Example 2 50 mg/kg orally + Anti-PD1 10 mg/kg intraperitoneally, each once every 3 days, EMT6, BALB/c mice.

The structures appear in SMILES notation.

With `CN[C@@H](C)C(=O)N[C@H](C(=O)N1CCC[C@H]1Cn1cc(C(C)=O)c2cc(Cl)ccc21)C1CCCCC1` [Example 2], in test [1] (setting [3]), the “Tumor volume Day 0” value stood at 97.3 mm^3, the “Tumor volume Day 7” value came out at 355.5 mm^3, the “Tumor volume Day 14” value was found to be 1097.7 mm^3 and the “Tumor volume Day 25” value stood at 2225.8 mm^3. Also, in test [1] (setting [4]), the “Tumor volume Day 0” value stood at 97.3 mm^3, the “Tumor volume Day 7” value is recorded as 332.4 mm^3, the “Tumor volume Day 14” value is reported as 174.2 mm^3 and the “Tumor volume Day 25” value was found to be 31.5 mm^3. For the same compound, the “Tumor volume Day 0” value in test [2] (Day 0 (start of dosing)) amounted to 51.6 mm^3. Moreover, the “Tumor volume Day 5” value in test [2] (Day 5) is 140.7 mm^3. For the same compound, the “Tumor volume Day 12” value in test [2] (Day 12) came to 215.5 mm^3. Also, in test [2] (Day 20), the “Tumor volume Day 20” value was determined as 427.1 mm^3.
